Results on four compounds are retold here after patent publication US9801961B2, “2-phenylimidazo[1,2-a]pyrimidines as imaging agents” (Hoffmann-La Roche Inc., priority 2013, dated 2017).

Each structure is given as a SMILES string.

For this assay, the system named is native tau aggregates. Put plainly: TAU radioligand in vitro displacement assay ([3H]T808 autoradiography on human AD brain sections). In kind it is binding. Conditions: compound 10 nM, radioligand [3H]T808 10 nM, 50 mM Tris pH 7.4, room temperature, 30 min. A digest of the protocol:
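Human AD brain cryosections (10 μm) co-incubated with [3H]T808 (10 nM) and test compound at various concentrations in 50 mM Tris pH 7.4, 30 min at room temperature, then washed at 4° C. Autoradiography after 5-day plate exposure. % displacement from ROI specific binding, white-matter signal subtracted as non-specific; cold T808 internal control.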
Consider `COc1ccc(-c2cn3ccc(N4CCC(CCF)CC4)nc3n2)cc1` [Example 56, 7-[4-(2-Fluoroethyl)piperidin-1-yl]-2-(4-methoxyphenyl)imidazo[1,2-a]pyrimidine], for which the “% displacement of [3H]T808 (10 nM) at 10 nM” value was 9%.

Take `COc1ccc(-c2cn3ccc(N4CCOCC4)nc3n2)cc1` [Example 25, 4-[2-(4-Methoxyphenyl)imidazo[1,2-a]pyrimidin-7-yl]morpholine]: the “% displacement of [3H]T808 (10 nM) at 10 nM” value amounted to 16%. Then `COc1cccc(-c2cn3ccc(N4CCC(CCF)CC4)nc3n2)c1` [Example 55, 7-[4-(2-Fluoroethyl)piperidin-1-yl]-2-(3-methoxyphenyl)imidazo[1,2-a]pyrimidine], with 10%; and `CNc1ccn2cc(-c3ccc(OC)c(OC)c3)nc2n1` [Example 142, 2-(3,4-Dimethoxyphenyl)-N-methylimidazo[1,2-a]pyrimidin-7-amine], with 21%.
